Data published in patent publication US20240041877A1, “DOSAGE REGIME AND METHOD FOR TREATING PULMONARY ARTERIAL HYPERTENSION” (Altavant Sciences GmbH, priority 2019, published 2024).

Experiment: Part 2 (MAD): plasma pharmacokinetics after BID oral KAR5585 for 14 days (incl. accumulation ratios and dose proportionality)
[1] = KAR5585 200 mg BID fed, Cohort 3, Day 1 PM, mean
[2] = KAR5585 200 mg BID fed, Cohort 3, Day 7 AM, Day 7/Day 1 accumulation ratio, geo. mean
[3] = KAR5585 200 mg BID fed, Cohort 3, Day 7 AM, Day 7/Day 1 accumulation ratio, mean
[4] = KAR5585 200 mg BID fed, Cohort 3, Day 7 AM, geo. mean
[5] = KAR5585 200 mg BID fed, Cohort 3, Day 7 AM, mean
[6] = KAR5585 200 mg BID fed, Cohort 3, Day 7 PM, Day 7/Day 1 accumulation ratio, geo. mean
[7] = KAR5585 200 mg BID fed, Cohort 3, Day 7 PM, Day 7/Day 1 accumulation ratio, mean
[8] = KAR5585 200 mg BID fed, Cohort 3, Day 7 PM, geo. mean
[9] = KAR5585 200 mg BID fed, Cohort 3, Day 7 PM, mean
[10] = KAR5585 200 mg BID fed, Cohort 3, Day 14 AM, Day 14/Day 1 accumulation ratio, geo. mean
[11] = KAR5585 200 mg BID fed, Cohort 3, Day 14 AM, Day 14/Day 1 accumulation ratio, mean
[12] = KAR5585 200 mg BID fed, Cohort 3, Day 14 AM, geo. mean
[13] = KAR5585 200 mg BID fed, Cohort 3, Day 14 AM, mean
[14] = KAR5585 400 mg BID fed, Cohort 4, Day 1 AM, geo. mean
[15] = KAR5585 400 mg BID fed, Cohort 4, Day 1 AM, mean
[16] = KAR5585 400 mg BID fed, Cohort 4, Day 1 PM, geo. mean
[17] = KAR5585 400 mg BID fed, Cohort 4, Day 1 PM, mean
[18] = KAR5585 400 mg BID fed, Cohort 4, Day 7 AM, Day 7/Day 1 accumulation ratio, geo. mean
[19] = KAR5585 400 mg BID fed, Cohort 4, Day 7 AM, Day 7/Day 1 accumulation ratio, mean
[20] = KAR5585 400 mg BID fed, Cohort 4, Day 7 AM, geo. mean
[21] = KAR5585 400 mg BID fed, Cohort 4, Day 7 AM, mean
[22] = KAR5585 400 mg BID fed, Cohort 4, Day 7 PM, Day 7/Day 1 accumulation ratio, geo. mean
[23] = KAR5585 400 mg BID fed, Cohort 4, Day 7 PM, Day 7/Day 1 accumulation ratio, mean
[24] = KAR5585 400 mg BID fed, Cohort 4, Day 7 PM, geo. mean
[25] = KAR5585 400 mg BID fed, Cohort 4, Day 7 PM, mean
[26] = KAR5585 400 mg BID fed, Cohort 4, Day 14 AM, Day 14/Day 1 accumulation ratio, geo. mean
[27] = KAR5585 400 mg BID fed, Cohort 4, Day 14 AM, Day 14/Day 1 accumulation ratio, mean
[28] = KAR5585 400 mg BID fed, Cohort 4, Day 14 AM, geo. mean
[29] = KAR5585 400 mg BID fed, Cohort 4, Day 14 AM, mean
[30] = power model, PK Day 1 (AM), 100 to 400 mg KAR5585 repeat oral doses, fed
[31] = power model, PK Day 7 (AM), 100 to 400 mg KAR5585 repeat oral doses, fed
[32] = power model, PK Day 14 (AM), 100 to 400 mg KAR5585 repeat oral doses, fed

From the text: Food effect was to be evaluated in Part 1, Period 2.
Pharmacokinetic data were to be summarized descriptively.

With `Nc1nc(O[C@H](c2ccc(Cl)cc2-c2ccccc2)C(F)(F)F)cc(N2CCC3(CC2)CN[C@H](C(=O)O)C3)n1` [KAR5417, (S)-8-(2-amino-6-((R)-1-(5-chloro-[1,1T-biphenyl]-2-yl)-2,2,2-trifluoroeth-oxy)pyrimidin-4-yl)-2,8-diazaspiro[4.5]decane-3-carboxylic acid] the t1/2 (KAR5585 200 mg BID fed, Cohort 3, Day 1 PM, geo. mean) was 5.95 h, the AUC0-12 [1] was 2000 ng·h/mL and the AUC0-24 [1] was 3700 ng·h/mL. For the same compound, the AUC0-24/D [1] was 9.26 (hr*ng/ml)/mg, the “AUC0-∞” value [1] was 2720 ng·h/mL and the C12 [1] was 112 ng/mL. The Cmax [1] was 322 ng/mL, the Cmax/D [1] was 1.61 (ng/ml)/mg and the t1/2 [1] was 6.03 h. It also gave a Tmax (KAR5585 200 mg BID fed, Cohort 3, Day 1 PM, median) of 4.0 h, an RAUC0-12 [2] of 1.33 and an RCmax [2] of 0.989. For the same compound, the RAUC0-12 [3] was 1.34, the RCmax [3] was 1.00 and the AUC0-12 [4] was 2150 ng·h/mL. For the same compound, the “AUC0-∞” value [4] was 2610 ng·h/mL, the C12 [4] was 87.2 ng/mL and the Cmax [4] was 332 ng/mL. The Cmax/D [4] was 1.66 (ng/ml)/mg, the t1/2 [4] was 4.57 h and the AUC0-12 [5] was 2300 ng·h/mL. The “AUC0-∞” value [5] was 2800 ng·h/mL, the C12 [5] was 93.1 ng/mL and the Cmax [5] was 359 ng/mL. The Cmax/D [5] was 1.80 (ng/ml)/mg, the t1/2 [5] was 4.61 h and the RAUC0-12 [6] was 0.955. For the same compound, the RCmax [6] was 0.645, the RAUC0-12 [7] was 0.984 and the RCmax [7] was 0.711. For the same compound, the AUC0-12 [8] was 1490 ng·h/mL, the AUC0-24 [8] was 3620 ng·h/mL and the AUC0-24/D [8] was 9.05 (hr*ng/ml)/mg. The “AUC0-∞” value [8] was 2270 ng·h/mL, the C12 [8] was 131 ng/mL and the Cmax [8] was 212 ng/mL. The Cmax/D [8] was 1.06 (ng/ml)/mg, the t1/2 [8] was 6.48 h and the AUC0-12 [9] was 1540 ng·h/mL. For the same compound, the AUC0-24 [9] was 3810 ng·h/mL, the AUC0-24/D [9] was 9.52 (hr*ng/ml)/mg and the “AUC0-∞” value [9] was 2280 ng·h/mL. For the same compound, the C12 [9] was 145 ng/mL, the Cmax/D [9] was 1.11 (ng/ml)/mg and the t1/2 [9] was 6.64 h. For the same compound, the RAUC0-12 [10] was 1.07, the RCmax [10] was 0.854 and the RAUC0-12 [11] was 1.09. It also gave an RCmax [11] of 0.901, an AUC0-12 [12] of 1670 ng·h/mL and an AUC0-24 [12] of 2200 ng·h/mL. The “AUC0-∞” value [12] was 3250 ng·h/mL, the C12 [12] was 59.6 ng/mL and the Cmax [12] was 281 ng/mL. For the same compound, the Cmax/D [12] was 1.40 (ng/ml)/mg, the t1/2 [12] was 24.1 h and the AUC0-12 [13] was 1820 ng·h/mL. For the same compound, the AUC0-24 [13] was 2380 ng·h/mL, the “AUC0-∞” value [13] was 3480 ng·h/mL and the C12 [13] was 63.5 ng/mL. For the same compound, the C24 [13] was 32.6 ng/mL, the Cmax [13] was 319 ng/mL and the Cmax/D [13] was 1.59 (ng/ml)/mg. For the same compound, the t1/2 [13] was 25.0 h, the AUC0-12 [14] was 2920 ng·h/mL and the “AUC0-∞” value [14] was 3400 ng·h/mL. For the same compound, the C12 [14] was 90.2 ng/mL, the Cmax [14] was 532 ng/mL and the Cmax/D [14] was 1.33 (ng/ml)/mg. The t1/2 [14] was 3.71 h, the AUC0-12 [15] was 3280 ng·h/mL and the “AUC0-∞” value [15] was 3780 ng·h/mL. For the same compound, the C12 [15] was 99.3 ng/mL, the Cmax [15] was 595 ng/mL and the Cmax/D [15] was 1.49 (ng/ml)/mg. The t1/2 [15] was 3.80 h, the AUC0-12 [16] was 4340 ng·h/mL and the AUC0-24 [16] was 7430 ng·h/mL. The AUC0-24/D [16] was 9.28 (hr*ng/ml)/mg, the “AUC0-∞” value [16] was 6860 ng·h/mL and the C12 [16] was 242 ng/mL. For the same compound, the Cmax [16] was 670 ng/mL, the Cmax/D [16] was 1.68 (ng/ml)/mg and the t1/2 [16] was 5.3 h. For the same compound, the AUC0-12 [17] was 4590 ng·h/mL, the AUC0-24 [17] was 7870 ng·h/mL and the AUC0-24/D [17] was 9.83 (hr*ng/ml)/mg. The “AUC0-∞” value [17] was 7090 ng·h/mL, the C12 [17] was 252 ng/mL and the Cmax [17] was 739 ng/mL. For the same compound, the Cmax/D [17] was 1.85 (ng/ml)/mg, the t1/2 [17] was 5.31 h and the RAUC0-12 [18] was 2.15. The RCmax [18] was 1.81, the RAUC0-12 [19] was 2.38 and the RCmax [19] was 2.00. The AUC0-12 [20] was 6250 ng·h/mL, the “AUC0-∞” value [20] was 7480 ng·h/mL and the C12 [20] was 222 ng/mL. For the same compound, the Cmax [20] was 960 ng/mL, the Cmax/D [20] was 2.40 (ng/ml)/mg and the t1/2 [20] was 3.89 h. For the same compound, the AUC0-12 [21] was 6600 ng·h/mL, the “AUC0-∞” value [21] was 7840 ng·h/mL and the C12 [21] was 240 ng/mL. For the same compound, the Cmax [21] was 1000 ng/mL, the Cmax/D [21] was 2.51 (ng/ml)/mg and the t1/2 [21] was 3.94 h. The RAUC0-12 [22] was 1.50, the RCmax [22] was 1.08 and the RAUC0-12 [23] was 1.63. The RCmax [23] was 1.18, the AUC0-12 [24] was 4360 ng·h/mL and the AUC0-24 [24] was 10600 ng·h/mL. For the same compound, the AUC0-24/D [24] was 13.3 (hr*ng/ml)/mg, the “AUC0-∞” value [24] was 6450 ng·h/mL and the C12 [24] was 356 ng/mL. The Cmax [24] was 574 ng/mL, the Cmax/D [24] was 1.44 (ng/ml)/mg and the t1/2 [24] was 5.08 h. For the same compound, the AUC0-12 [25] was 4610 ng·h/mL, the AUC0-24 [25] was 11200 ng·h/mL and the AUC0-24/D [25] was 14.0 (hr*ng/ml)/mg. For the same compound, the “AUC0-∞” value [25] was 6520 ng·h/mL, the C12 [25] was 396 ng/mL and the Cmax/D [25] was 1.52 (ng/ml)/mg. It also gave a t1/2 [25] of 5.10 h, an RAUC0-12 [26] of 1.43 and an RCmax [26] of 1.35. The RAUC0-12 [27] was 1.65, the RCmax [27] was 1.54 and the AUC0-12 [28] was 4160 ng·h/mL. The AUC0-24 [28] was 5410 ng·h/mL, the AUC0-24/D [28] was 13.5 (hr*ng/ml)/mg and the “AUC0-∞” value [28] was 8120 ng·h/mL. For the same compound, the C12 [28] was 140 ng/mL, the C24 [28] was 73.3 ng/mL and the Cmax [28] was 717 ng/mL. The Cmax/D [28] was 1.79 (ng/ml)/mg, the t1/2 [28] was 30.4 h and the AUC0-24 [29] was 5660 ng·h/mL. For the same compound, the AUC0-24/D [29] was 14.1 (hr*ng/ml)/mg, the “AUC0-∞” value [29] was 8500 ng·h/mL and the C12 [29] was 149 ng/mL. For the same compound, the Cmax [29] was 749 ng/mL, the Cmax/D [29] was 1.87 (ng/ml)/mg and the t1/2 [29] was 30.6 h. The “Dose proportionality analysis, AUC0-12: Intercept estimate” value [30] was 0.828, the “Dose proportionality analysis, AUC0-inf: Intercept estimate” value [30] was 1.12 and the “Dose proportionality analysis, Cmax: Intercept estimate” value (from here on “Dose proportionality analysis, Cmax”) [30] was 0.167. For the same compound, the “Dose proportionality analysis, AUC0-12: Intercept estimate” value [31] was 2.63, the “Dose proportionality analysis, Cmax” value [31] was 0.393 and the “Dose proportionality analysis, AUC0-12: Intercept estimate” value [32] was 5.18. For the same compound, the “Dose proportionality analysis, Cmax” value [32] was 0.877.
